What was measured:
[1] = target: T1, cathepsin D (from human liver) (Homo sapiens, UniProt P07339); test: Cathepsin D fluorescent substrate kinetic assay; type: biochemical; details: pH 5.5, substrate WTSVLMAAPC-MR121
T1 construct: cathepsin D (from human liver, Calbiochem) diluted in assay buffer; purchased Calbiochem; host or cells: human liver
Text: (§1) Cathepsin D and Cathepsin E Fluorescent Substrate Kinetic Assays
(§2) The MR121 fluorescence assays described below are based on the fact that MR121 forms a non-fluorescent ground state complex with tryptophan. In solution this formation occurs at millimolar concentrations of tryptophan. The mechanism can be used to design a generic biochemical assay for proteases. A substrate peptide is labeled at the N-terminus with tryptophan and at the C-terminus with the fluorophore MR121 (for cathepsin D the 10 amino acid peptide WTSVLMAAPC-MR121 was used; for cathepsin E, MR121-CKLVFFAEDW was used). In absence of protease activity, the substrates remain intact and the MR121 fluorescence is reduced by the high local Trp-concentration. If the substrates are cleaved by the enzymes the MR121 fluorescence is recovered.
(§3) The fluorescent substrate cathepsin D and cathepsin E kinetic assays were performed at room temperature in 384-well microtiter plates (black with clear flat bottom, non-binding surface plates from Corning) in a final volume of 51 μl. The test compounds were serially diluted in DMSO (15 concentrations, ⅓ dilution steps) and 1 μl of diluted compounds were mixed for 10 min with 40 μl of cathepsin D (from human liver, Calbiochem) diluted in assay buffer (100 mM sodium acetate, 0.05% BSA, pH 5.5; final concentration:200 nM) or with 40 μl of recombinant human cathepsin E (R&D Systems) diluted in assay buffer (100 mM sodium acetate, 0.05% BSA, pH 4.5; final concentration:0.01 nM). After addition of 10 μl of the cathepsin D substrate WTSVLMAAPC-MR121 diluted in cathepsin D assay buffer (final concentration:300 nM) or 10 μl of the cathepsin E substrate MR121-CKLVFFAEDW diluted in cathepsin E assay buffer (final concentration:300 nM), the plates were strongly shaken for 2 minutes. The enzymatic reaction was followed in a plate: vision reader (Perkin Elmer) (excitation wavelength:630 nm; emission:695 nm) for at least 30 minutes in a kinetic measurement detecting an increase of MR121 fluorescence during the reaction time. The slope in the linear range of the kinetic was calculated and the IC50 of the test compounds were determined using a four parameter equation for curve fitting.

[2] = GSH human, in vitro adduct formation; type: in vitro ADME; design: key: NF = in vitro no significant adduct formation relative to control; details: in vitro adduct formation relative to control
[3] = target: T2, recombinant human cathepsin E (Homo sapiens, UniProt P14091); test: Cathepsin E fluorescent substrate kinetic assay; type: biochemical; details: pH 4.5, substrate MR121-CKLVFFAEDW
T2 construct: purchased R&D Systems
T2 sequence (P14091 54-396): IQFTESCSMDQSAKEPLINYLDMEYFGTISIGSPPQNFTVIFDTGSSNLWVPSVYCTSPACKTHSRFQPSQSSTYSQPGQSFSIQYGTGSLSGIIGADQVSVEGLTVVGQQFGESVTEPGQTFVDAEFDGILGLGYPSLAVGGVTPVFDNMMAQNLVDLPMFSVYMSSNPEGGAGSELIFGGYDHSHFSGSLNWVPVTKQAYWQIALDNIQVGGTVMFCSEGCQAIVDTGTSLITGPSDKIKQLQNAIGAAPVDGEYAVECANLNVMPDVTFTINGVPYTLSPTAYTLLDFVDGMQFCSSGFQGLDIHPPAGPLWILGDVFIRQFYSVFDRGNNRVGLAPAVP
Text: as §1, §2, §3

BACE1 = target: T3, BACE1 (Homo sapiens, UniProt P56817); test: Cellular Aβ-lowering assay (Abeta 40 AlphaLISA, HEK293 APP cells); type: cell-based; details: 18-20 hrs incubation, Aβ 40 in culture supernatant, read-out: BACE1 cell act. Aβ40 IC50
T3 construct: endogenous in cells; host or cells: HEK293 APP cells
T3 sequence (P56817 46-501): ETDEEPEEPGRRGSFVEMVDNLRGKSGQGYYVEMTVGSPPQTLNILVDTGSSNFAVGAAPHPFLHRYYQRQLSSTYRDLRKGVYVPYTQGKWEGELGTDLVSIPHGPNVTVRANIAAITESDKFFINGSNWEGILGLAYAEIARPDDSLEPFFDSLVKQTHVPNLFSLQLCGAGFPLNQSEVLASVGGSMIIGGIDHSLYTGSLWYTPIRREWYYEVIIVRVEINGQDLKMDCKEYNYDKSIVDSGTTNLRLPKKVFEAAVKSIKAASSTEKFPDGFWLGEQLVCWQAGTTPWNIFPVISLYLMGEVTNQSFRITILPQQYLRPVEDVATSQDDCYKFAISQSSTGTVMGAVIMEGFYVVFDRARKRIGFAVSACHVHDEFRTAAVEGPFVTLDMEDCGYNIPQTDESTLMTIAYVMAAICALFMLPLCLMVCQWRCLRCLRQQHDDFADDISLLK
Protocol: Cellular Aβ-Lowering Assay:
The Abeta 40 AlphaLISA Assay can be used. The HEK293 APP cells were seeded in 96 well Microtiter plates in cell culture medium (Iscove's, plus 10% (v/v) fetal bovine serum, penicillin/streptomycin) to about 80% confluency and the compounds were added at a 3× concentration in ⅓ volume of culture medium (final DMSO concentration was kept at 1% v/v). After 18-20 hrs incubation at 37° C. and 5% CO2 in a humidified incubator, the culture supernatants were harvested for the determination of Aβ 40 concentrations using Perkin-Elmer Human Amyloid beta 1-40 (high specificity) Kit (Cat#AL275C).
In a Perkin-Elmer White Optiplate-384 (Cat#6007290), 2 ul culture supernatants were combined with 2 μl of a 10× AlphaLISA Anti-hAβAcceptor beads + Biotinylated Antibody Anti-Aβ 1-40 Mix (50 μg/mL/5 nM). After 1 hour room temperature incubation, 16 μl of a 1.25× preparation of Streptavidin (SA) Donor beads (25 μg/mL) were added and incubated for 30 minutes in the Dark. Light Emission at 615 nm was then recorded using EnVision-Alpha Reader. Levels of Aβ 40 in the culture supernatants were calculated as percentage of maximum signal (cells treated with 1% DMSO without inhibitor). The IC50 values were calculated using the Excel XLfit software.

CYP2D6 = target: T4, CYP2D6 (Homo sapiens, UniProt P10635); test: CYP inhibition assay, human liver microsomes; type: in vitro ADME; details: human liver microsomes, substrate dextromethorphan; read-out: CYP IC50 2D6
T4 construct: 0.2 mg/ml pooled human liver microsomes; from tissue; host or cells: pooled human liver microsomes
T4 sequence (P10635 whole entry): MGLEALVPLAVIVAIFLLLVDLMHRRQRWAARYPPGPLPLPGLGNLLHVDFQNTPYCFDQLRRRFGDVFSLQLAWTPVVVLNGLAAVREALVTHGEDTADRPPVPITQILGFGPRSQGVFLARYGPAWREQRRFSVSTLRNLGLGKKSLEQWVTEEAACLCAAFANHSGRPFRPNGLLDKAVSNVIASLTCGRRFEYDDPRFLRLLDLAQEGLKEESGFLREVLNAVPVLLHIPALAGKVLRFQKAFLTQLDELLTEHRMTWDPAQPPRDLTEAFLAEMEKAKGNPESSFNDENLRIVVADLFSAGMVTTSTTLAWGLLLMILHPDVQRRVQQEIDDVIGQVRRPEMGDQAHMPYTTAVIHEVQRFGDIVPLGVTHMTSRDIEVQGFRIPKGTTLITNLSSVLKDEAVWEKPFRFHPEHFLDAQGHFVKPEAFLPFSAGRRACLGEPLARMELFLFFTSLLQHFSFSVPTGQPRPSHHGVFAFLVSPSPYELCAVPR
Protocol: (§4) Inhibition of cytochromes P450 (CYPs) 2C9, 2D6 and 3A4 was assessed using human liver microsomes and CYP-selective substrate metabolism reactions. 50 μl incubations were made up containing (finally) 0.2 mg/ml pooled human liver microsomes, 5 μM substrate (diclofenac for CYP2C9 [4′hydroxylase], dextromethorphan for CYP2D6 [O-demethylase] or midazolam for CYP3A4 [1′hydroxylase]), 0.25 μL DMSO containing test inhibitor and NADPH regenerating system. Test inhibitor concentrations of 50, 16.7, 5.6, 1.9, 0.6 and 0.2 μM were assessed in singlicate. Incubations were prewarmed to 37° C. for 10 minutes before initiation by addition of NADPH regenerating system. Incubations were quenched after 5 minutes (20 minutes for dextromethorphan) by addition of 50 μl cold acetonitrile containing 20 ng/ml 4-OH-diclofenac-13C6, 20 ng/mL dextrorphan-D3 and 20 ng/mL 1-OH-midazolam-D4. Quenched incubates were stored at −20° C. for at least 1 hour before centrifugation (20,000× g, 20 minutes). Supernatants were removed and diluted 1:1 with water prior to analysis using a RapidFire sample injector system and API4000 mass spectrometer. Peak areas for substrate, metabolite and stable-labelled metabolite standard were determined using MS/MS. The peak area ratios between the metabolite generated by the enzymatic reaction and the internal standard were used in subsequent calculations. The percentage of (DMSO) control activity was calculated for each incubate and IC50 values estimated by non-linear regression. Sulfaphenazole, quinidine or ketoconazole were tested in each CYP2C9, CYP2D6 or CYP3A4 inhibition experiment, respectively, to ensure assay sensitivity and reproducibility. (Validated assays for human cytochrome P450 activities, R. L. Walsky and R. S. Obach, Drug Metabolism and Disposition 32: 647-660, 2004. and S. Fowler and H. Zhang, The AAPS Journal, Vol. 10, No. 2, 410-424, 2008)

CYP2C9 = target: T5, CYP2C9 (Homo sapiens, UniProt P11712); test: CYP inhibition assay, human liver microsomes; type: in vitro ADME; details: human liver microsomes, substrate diclofenac; read-out: CYP IC50 2C9
T5 construct: 0.2 mg/ml pooled human liver microsomes; from tissue; host or cells: pooled human liver microsomes
T5 sequence (P11712 whole entry): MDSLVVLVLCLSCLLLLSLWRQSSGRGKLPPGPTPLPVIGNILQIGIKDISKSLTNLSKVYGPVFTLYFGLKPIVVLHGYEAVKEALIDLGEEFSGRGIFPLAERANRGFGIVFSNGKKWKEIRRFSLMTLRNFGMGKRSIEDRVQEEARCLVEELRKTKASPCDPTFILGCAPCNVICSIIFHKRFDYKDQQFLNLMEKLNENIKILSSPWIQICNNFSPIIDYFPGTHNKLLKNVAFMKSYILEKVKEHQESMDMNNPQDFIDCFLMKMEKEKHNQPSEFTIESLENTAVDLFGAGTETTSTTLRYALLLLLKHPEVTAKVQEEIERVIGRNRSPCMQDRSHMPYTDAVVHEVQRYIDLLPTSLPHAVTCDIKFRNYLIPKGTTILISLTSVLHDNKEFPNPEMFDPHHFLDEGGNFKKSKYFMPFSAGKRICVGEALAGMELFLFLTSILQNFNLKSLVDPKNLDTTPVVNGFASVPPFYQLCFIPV
Protocol: as §4

T1 sequence (P07339 65-162 limits assumed): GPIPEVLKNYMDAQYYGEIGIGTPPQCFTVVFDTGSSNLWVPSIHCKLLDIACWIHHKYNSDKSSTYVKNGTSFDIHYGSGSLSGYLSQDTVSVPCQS
T1 sequence (P07339 169-412 limits assumed): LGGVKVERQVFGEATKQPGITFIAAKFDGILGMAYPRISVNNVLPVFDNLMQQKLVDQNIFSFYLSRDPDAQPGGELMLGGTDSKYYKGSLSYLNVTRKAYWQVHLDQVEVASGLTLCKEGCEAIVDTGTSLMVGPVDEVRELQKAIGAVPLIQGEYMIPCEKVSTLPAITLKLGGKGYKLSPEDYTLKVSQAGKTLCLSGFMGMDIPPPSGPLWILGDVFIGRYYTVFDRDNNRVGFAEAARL

IC50 [1]: 75 µM | GSH human [2]: NF | IC50 [3]: 139 µM | IC50 (BACE1): 0.095 µM | IC50 (CYP2D6): > 10 µM | IC50 (CYP2C9): > 10 µM
Compound: CN=[S@]1(=O)C[C@@](CF)(c2cc(-c3cc(-c4ncc(Cl)cn4)no3)ccc2F)N=C(N)C1(C)C [Example 1, (1S,3S)-5-amino-3-(5-(3-(5-chloropyrimidin-2-yl)isoxazol-5-yl)-2-fluorophenyl)-3-(fluoromethyl)-6,6-dimethyl-1-(methylimino)-3,6-dihydro-2H-1,4-thiazine 1-oxide 2,2,2-trifluoroacetate]

Source: patent publication US10047081B2, “BACE1 inhibitors” (Hoffmann-La Roche Inc., priority 2015, dated 2018)
